Assay type in all cases: functional, cell-based
Test [1] has as its system SMMC-7721. The test can be described thus: Cytotoxicity against human SMMC7721 after 48 hrs by MTT assay. The conditions noted are these: SMMC-7721, 48 h. In general terms: Formazan colour is commonly taken as a measure of viable cells.
In test [2] the test system is A549. Put plainly: Cytotoxicity against human A549 after 48 hrs by MTT assay. The conditions noted are these: A549, 48 h.
The test system of test [3] is MCF7. Put plainly: Cytotoxicity against human MCF7 after 48 hrs by MTT assay. The conditions noted are these: MCF7, 48 h.
Test [4] has as its system HL-60. Put plainly: Cytotoxicity against human HL60 after 48 hrs by MTT assay. The conditions noted are these: HL-60, 48 h.
In test [5] the test system is SW480. The test can be described thus: Cytotoxicity against human SW480 after 48 hrs by MTT assay. The conditions noted are these: SW480, 48 h.

From ChEMBL document CHEMBL2429853, “Gardovatine, a novel Strychnos-Strychnos bisindole alkaloid with cytotoxicity from Gardneria oveta” (Bioorg Med Chem Lett, 2013) come the findings set out here.

Usually IC50 stands for the point on the concentration scale where inhibition reaches its midpoint. Low values mean inhibition by little substance, high ones a need for much substance.

For `C/C=C1/CN2CCc3c4n(c5ccccc35)/C=C3/[C@H]5C[C@@H]6N(CC[C@@]67c6ccccc6N(/C=C\4[C@H]1CC2=O)[C@@H]37)C/C5=C/C` [(15S,19E,2'S,3'S,7'R,15'S,19'E)-GARDOVATINE], the IC50 in test [1] came out at 10.5 µM; in test [2], 14.2 µM; in test [3] it was 13.9 µM; in test [4] it was 9.8 µM; in test [5], 16.1 µM.

As to `C/C=C1/CN2CC[C@]34c5ccccc5N5[C@H]3[C@H]([C@H]3O[C@]6([C@@H]7N3c3ccccc3[C@@]73CCN7C/C(=C/C)[C@@H]6C[C@H]73)[C@H]5OC)[C@H]1C[C@H]24` [DIVARINE], the half-maximal inhibitory concentration (IC50) amounted to 3.2 µM in test [1]; 3.2 µM in test [2]; 3 µM in test [3]; 1.2 µM in test [4]; 1.6 µM in test [5].
